The text below walks through data of patent US20240209053A1 (Protagonist Therapeutics, Inc., priority 2021, published 2024).

For one assay, the target named is T1, ferroportin (Homo sapiens, UniProt Q9NP59).
T1 sequence (Q9NP59 1-571): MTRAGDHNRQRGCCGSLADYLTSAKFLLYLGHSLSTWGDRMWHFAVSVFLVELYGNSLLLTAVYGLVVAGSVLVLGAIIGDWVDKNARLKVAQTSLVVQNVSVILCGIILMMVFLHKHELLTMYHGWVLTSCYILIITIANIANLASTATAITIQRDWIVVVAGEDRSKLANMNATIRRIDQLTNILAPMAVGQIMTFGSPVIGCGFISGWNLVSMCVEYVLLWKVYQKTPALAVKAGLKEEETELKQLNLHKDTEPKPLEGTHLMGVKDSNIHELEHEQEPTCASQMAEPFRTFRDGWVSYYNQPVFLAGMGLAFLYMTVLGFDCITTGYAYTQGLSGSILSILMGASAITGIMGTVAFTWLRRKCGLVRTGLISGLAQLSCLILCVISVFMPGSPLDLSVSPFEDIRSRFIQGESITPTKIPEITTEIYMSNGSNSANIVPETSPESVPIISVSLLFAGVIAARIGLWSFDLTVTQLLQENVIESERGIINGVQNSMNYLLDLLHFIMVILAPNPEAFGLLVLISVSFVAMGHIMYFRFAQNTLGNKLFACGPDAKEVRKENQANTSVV
The assay is described as follows: T47D cell-based ferroportin internalization assay in presence of 0.5% mouse serum albumin (MSA). The note with it: T47D cells. The method, then:
The potency of the peptides in causing ferroportin internalization was evaluated in a T47D cell-based assay. […] In this internalization assay, the potency of the test peptides was evaluated in presence of serum albumin which is the main protein component in the blood. T47D cells were maintained in RPMI media (containing required amount of fetal bovine serum) and regularly sub-cultured. In preparation for the assay, the cells were seeded in 96-well plates at a density of 80-100 k cells per well in 100 ul volume and allowed to rest overnight. On the next day, test peptides were first prepared in dilution series (10-point series, starting concentration of ˜5 μM, typically 3-4×fold dilution steps), all with 0.5% mouse serum albumin (MSA purified from mouse serum; Sigma, A3139). The test peptide dilution series were allowed to incubate at room temperature for 30 min. Then the media was aspirated from the 96-well cell plate and test peptide dilution series were added. After 1 hr incubation, the media with test peptides was aspirated out and AF647-conjugated detection peptide was added at fixed concentration of 200 nM. The AF647-conjugated detection peptide was previously verified to bind to ferroportin and cause its internalization. The cells were washed again after a 2 hr incubation in preparation for flow cytometry analysis. The Median Fluorescence Intensity (MFI) of the AF647-positive population was measured (after removing dead cells and non-singlets from the analysis). The MFI values were used to generate a dose-response curve and obtain IC50 potencies for the test peptides. The IC50 potencies were calculated by using 4-parameter non-linear fitting function in Graphpad Prism (Table 6A).

In assay [1] the target is T2, human ferroportin (SLC40A1) (Homo sapiens, UniProt Q9NP59).
T2 sequence (Q9NP59 1-571): T1 sequence (Q9NP59 1-571)
The assay is described as follows: FPN activity assay: internalization/degradation of ferroportin-GFP in stably transfected HEK293 cells (decrease in GFP fluorescence). Format: cell-based. The note with it: compound incubated at least 18 hours. The method, then: Peptide analogues were tested in vitro for induction of internalization of the human ferroportin protein. Following internalization, the ferroporin protein is degraded. The assay used (FPN activity assay) measures a decrease in fluorescence of the receptor. The cDNA encoding the human ferroportin (SLC40A1) was cloned from a cDNA clone from Origene (NM_014585). The DNA encoding the ferroportin was amplified by PCR using primers also encoding terminal restriction sites for subcloning, but without the termination codon. The ferroportin receptor was subcloned into a mammalian GFP expression vector containing a neomycin (G418) resistance marker in such that the reading frame of the ferroportin was fused in frame with the GFP protein. The fidelity of the DNA encoding the protein was confirmed by DNA sequencing. HEK293 cells were used for transfection of the ferroportin-GFP receptor expression plasmid. The cells were grown according to standard protocol in growth medium and transfected with the plasmids using Lipofectamine (manufacturer's protocol, Invitrogen). The cells stably expressing ferroportin-GFP were selected using G418 in the growth medium (in that only cells that have taken up and incorporated the cDNA expression plasmid survive) and sorted several times on a Cytomation MoFloTM cell sorter to obtain the GFP-positive cells (488 nm/530 nm). The cells were propagated and frozen in aliquots. […] Compound was added to desired final concentration for at least 18 hours in the incubator. […] Compound was added to desired final concentration for at least 18 hours but no more than 24 hours in the incubator. […] The “RI” in RI-Mini-Hepcidin refers to Retro Inverse. A retro inverse peptide is a peptide with a reversed sequence in all D amino acids. An example is that […] becomes […]. The EC50 of these reference compounds for ferroportin internalization/degradation was determined according to the FPN activity assay described above. These peptides served as control standards.

Each structure is given as a SMILES string. Numbered stars: 1 amine (or outer) side, 2 acyl side, 3 side chain; on linkers, the order of the positions; unused ones are H or OH. Bridge positions count the residues as written; N and C are the ends. Square brackets hold non-standard residues; d marks the D form. Side chains are listed from the residue outwards. Peptide text beside a SMILES is read from it. * marks the point of attachment. Nle(6-ylidene) = O=C([C@H](CCCC=[*:3])N[*:1])[*:2]; Dip = N[C@H](C(=O)O)C(c1ccccc1)c1ccccc1; Hag = O=C([C@H](CCC=[*:3])N[*:1])[*:2]; Palmitoyl = CCCCCCCCCCCCCCCC(=O)*; NMeF = CN[C@@H](Cc1ccccc1)C(=O)O; β3hF = N[C@H](CC(=O)O)Cc1ccccc1; AllylGly = C=CC[C@H](N)C(=O)O; Isovaleryl = CC(C)CC(=O)*; Ahx = NCCCCCC(=O)O; GABA = NCCCC(=O)O A value given as a limit tells only on which side of the number the result lay.

Regarding `CCCCCCCCCCCCCCCC(=O)NCCCCCC(=O)NCCCC[C@H](NC(=O)C[C@H](Cc1ccccc1)NC(=O)[C@@H]1CCC=CCC[C@H](NC(=O)CC(C)C)C(=O)N[C@@H]([C@@H](C)O)C(=O)N[C@@H](Cc2c[nH]cn2)C(=O)N(C)[C@@H](Cc2ccccc2)C(=O)N2CCC[C@H]2C(=O)N[C@@H](C)C(=O)N[C@@H]([C@@H](C)CC)C(=O)N1)C(=O)N[C@H](CCCCN)C(N)=O` [Compd 51] (Isovaleryl-[Hag]TH[NMeF]PAI[Hag][β3hF]K([Ahx-Palmitoyl])[dK]-NH2; staple 1-8), the IC50 on ferroportin was greater than 500 nM.
`CCCCCCCCCCCCCCCC(=O)NCCCCCC(=O)NCCCC[C@H](NC(=O)C[C@H](Cc1ccccc1)NC(=O)[C@@H]1CCC=CCC[C@H](NC(=O)CC(C)C)C(=O)N[C@@H]([C@@H](C)O)C(=O)N[C@@H](Cc2c[nH]cn2)C(=O)N[C@@H](C(c2ccccc2)c2ccccc2)C(=O)N2CCC[C@H]2C(=O)N1)C(N)=O` (single isomer, unassigned) [Compd 20]: in assay [1], the half-maximal inhibitory concentration (IC50) was greater than 500 nM.
Turning to `CCCCCCCCCCCCCCCC(=O)NCCCCCC(=O)NCCCC[C@H](NC(=O)C[C@H](Cc1ccccc1)NC(=O)[C@@H](CCCCN)NC(=O)[C@@H](NC(=O)[C@@H]1CCCCC[C@H](NC(=O)[C@H](Cc2c[nH]cn2)NC(=O)[C@@H](NC(=O)[C@H](CCC(=O)O)NC(=O)CC(C)C)[C@@H](C)O)C(=O)N2CCC[C@H]2C(=O)N1)[C@@H](C)CC)C(=O)N[C@H](CCCCN)C(N)=O` [Compd 7], the IC50 in assay [1] was greater than 500 nM.
`CCCCCCCCCCCCCCCC(=O)NCCCCCC(=O)NCCCC[C@@H]1NC(=O)[C@@H]2CCCN2C(=O)[C@H](C(c2ccccc2)c2ccccc2)NC(=O)[C@H](Cc2c[nH]cn2)NC(=O)[C@H]([C@@H](C)O)NC(=O)[C@@H](NC(=O)CC(C)C)CCCC=CCCC[C@@H](C(=O)N[C@H](CC(=O)N[C@H](CCCCN)C(N)=O)Cc2ccccc2)NC1=O` [Compd 35] (Isovaleryl-[Nle(6-ylidene)]TH[Dip]PK([Ahx-Palmitoyl])[Nle(6-ylidene)][β3hF][dK]-NH2; staple 1-7) displayed an IC50 in assay [1] greater than 500 nM.
The same measure, in the same setting: the result for `CCCCCCCCCCCCCCCC(=O)NCCCCCC(=O)NCCCC[C@@H]1NC(=O)[C@H](C)NC(=O)[C@@H]2CCCN2C(=O)[C@H](C(c2ccccc2)c2ccccc2)NC(=O)[C@H](Cc2c[nH]cn2)NC(=O)[C@H]([C@@H](C)O)NC(=O)[C@@H](NC(=O)CC(C)C)CCC=CCC[C@@H](C(=O)N[C@H](CC(=O)N[C@H](CCCCN)C(N)=O)Cc2ccccc2)NC1=O` (single isomer, unassigned) [Compd 39] reads 100 to 500 nM; that for `CCCCCCCCCCCCCCCC(=O)NCCCCCC(=O)NCCCC[C@H](NC(=O)C[C@H](Cc1ccccc1)NC(=O)[C@@H]1CCC=CCC[C@H](NC(=O)CC(C)C)C(=O)N[C@@H]([C@@H](C)O)C(=O)N[C@@H](Cc2c[nH]cn2)C(=O)N[C@@H](C(c2ccccc2)c2ccccc2)C(=O)N[C@@H](C)C(=O)N[C@@H](C)C(=O)N[C@@H]([C@@H](C)CC)C(=O)N1)C(=O)N[C@H](CCCCN)C(N)=O` [Compd 44] (Isovaleryl-[Hag]TH[Dip]AAI[Hag][β3hF]K([Ahx-Palmitoyl])[dK]-NH2; staple 1-8), 10 to 100 nM; that for `CCCCCCCCCCCCCCCC(=O)NCCCCCC(=O)NCCCC[C@H](NC(=O)C[C@H](Cc1ccccc1)NC(=O)[C@@H]1CCC=CCC[C@H](NC(=O)CC(C)C)C(=O)N[C@@H]([C@@H](C)O)C(=O)N[C@@H](Cc2c[nH]cn2)C(=O)N[C@@H](C(c2ccccc2)c2ccccc2)C(=O)N2CCC[C@H]2C(=O)N[C@@H]([C@@H](C)CC)C(=O)N1)C(N)=O` [Compd 19] (Isovaleryl-[Hag]TH[Dip]PI[Hag][β3hF]K([Ahx-Palmitoyl])-NH2; staple 1-7), greater than 500 nM.
Regarding `CCCCCCCCCCCCCCCC(=O)NCCCCCC(=O)NCCCC[C@H](NC(=O)C[C@H](Cc1ccccc1)NC(=O)[C@@H](CCCCN)NC(=O)[C@@H](NC(=O)[C@@H]1CCC=CCC[C@H](NC(=O)[C@@H](NC(=O)[C@H](Cc2c[nH]cn2)NC(=O)[C@@H](NC(=O)[C@H](CCC(=O)O)NC(=O)CC(C)C)[C@@H](C)O)C(c2ccccc2)c2ccccc2)C(=O)N1)[C@@H](C)CC)C(=O)N[C@H](CCCCN)C(N)=O` [Compd 11], the IC50 in assay [1] was greater than 500 nM.
In assay [1], `CCCCCCCCCCCCCCCC(=O)NCCCCCC(=O)NCCCC[C@H](NC(=O)C[C@H](Cc1ccccc1)NC(=O)[C@@H](CCCCN)NC(=O)[C@@H](NC(=O)[C@@H]1CCC=CC[C@H](NC(=O)[C@H](Cc2c[nH]cn2)NC(=O)[C@@H](NC(=O)[C@H](CCC(=O)O)NC(=O)CC(C)C)[C@@H](C)O)C(=O)N2CCC[C@H]2C(=O)N1)[C@@H](C)CC)C(=O)N[C@H](CCCCN)C(N)=O` [Compd 4] (Isovaleryl-ETH[AllylGly]P[Hag]I[dK][β3hF]K([Ahx-Palmitoyl])[dK]-NH2; staple 4-6) gave an IC50 greater than 500 nM.
`CCCCCCCCCCCCCCCC(=O)NCCCCCC(=O)NCCCC[C@H](NC(=O)C[C@H](Cc1ccccc1)NC(=O)[C@@H]1CCC=CCC[C@H](NC(=O)CC(C)C)C(=O)N[C@@H]([C@@H](C)O)C(=O)N(C)[C@@H](Cc2c[nH]cn2)C(=O)N[C@@H](C(c2ccccc2)c2ccccc2)C(=O)N2CCC[C@H]2C(=O)N[C@@H](C)C(=O)N[C@@H]([C@@H](C)CC)C(=O)N1)C(=O)N[C@H](CCCCN)C(N)=O` [Compd 50]: the IC50 on ferroportin is greater than 500 nM.
For `CCCCCCCCCCCCCCCC(=O)NCCCCCC(=O)NCCCC[C@H](NC(=O)C[C@H](Cc1ccccc1)NC(=O)[C@@H]1CCC=CCC[C@H](NC(=O)CC(C)C)C(=O)N[C@@H]([C@@H](C)O)C(=O)N[C@@H](Cc2c[nH]cn2)C(=O)N[C@@H](C(c2ccccc2)c2ccccc2)C(=O)N2CCC[C@H]2C(=O)NCCCC(=O)N1)C(=O)N[C@H](CCCCN)C(N)=O` [Compd 66] (Isovaleryl-[Hag]TH[Dip]P[GABA][Hag][β3hF]K([Ahx-Palmitoyl])[dK]-NH2; staple 1-7), the IC50 in assay [1] fell in the range of 10 to 100 nM.
In turn, `CCCCCCCCCCCCCCCC(=O)NCCCCCC(=O)NCCCC[C@H](NC(=O)C[C@H](Cc1ccccc1)NC(=O)[C@@H]1CCC=CCC[C@H](NC(=O)CC(C)C)C(=O)N[C@@H]([C@@H](C)O)C(=O)N[C@@H](Cc2c[nH]cn2)C(=O)N[C@@H](C(c2ccccc2)c2ccccc2)C(=O)N2CCC[C@H]2C(=O)N1)C(N)=O` (single isomer, unassigned) [Compd 86] gave a half-maximal inhibitory concentration (IC50) in assay [1] greater than 500 nM.
In the case of `CCCCCCCCCCCCCCCC(=O)NCCCCCC(=O)NCCCC[C@@H]1NC(=O)[C@@H]2CCCN2C(=O)[C@H](C(c2ccccc2)c2ccccc2)NC(=O)[C@H](Cc2c[nH]cn2)NC(=O)[C@H]([C@@H](C)O)NC(=O)[C@@H](NC(=O)CC(C)C)CCC=CCC[C@@H](C(=O)N[C@H](CC(=O)N[C@H](CCCCN)C(N)=O)Cc2ccccc2)NC1=O` (single isomer, unassigned) [Compd 40], the half-maximal inhibitory concentration (IC50) in assay [1] is greater than 500 nM.
Consider `CCCCCCCCCCCCCCCC(=O)NCCCCCC(=O)NCCCC[C@@H]1NC(=O)[C@@H]2CCCN2C(=O)[C@H](C(c2ccccc2)c2ccccc2)NC(=O)[C@H](Cc2c[nH]cn2)NC(=O)[C@H]([C@@H](C)O)NC(=O)[C@@H](NC(=O)CC(C)C)CCC=CCC[C@@H](C(=O)N[C@H](CC(=O)N[C@H](CCCCN)C(N)=O)Cc2ccccc2)NC1=O` (single isomer, unassigned) [Compd 38], for which the IC50 in assay [1] was greater than 500 nM.
